Experimental data as given in BindingDB's records for PubMed 11259544 (Florida State University, 2001).

molecular target: Cannabinoid receptor 1 (Taeniopygia guttata, UniProt P56971)
Sequence (P56971 whole entry): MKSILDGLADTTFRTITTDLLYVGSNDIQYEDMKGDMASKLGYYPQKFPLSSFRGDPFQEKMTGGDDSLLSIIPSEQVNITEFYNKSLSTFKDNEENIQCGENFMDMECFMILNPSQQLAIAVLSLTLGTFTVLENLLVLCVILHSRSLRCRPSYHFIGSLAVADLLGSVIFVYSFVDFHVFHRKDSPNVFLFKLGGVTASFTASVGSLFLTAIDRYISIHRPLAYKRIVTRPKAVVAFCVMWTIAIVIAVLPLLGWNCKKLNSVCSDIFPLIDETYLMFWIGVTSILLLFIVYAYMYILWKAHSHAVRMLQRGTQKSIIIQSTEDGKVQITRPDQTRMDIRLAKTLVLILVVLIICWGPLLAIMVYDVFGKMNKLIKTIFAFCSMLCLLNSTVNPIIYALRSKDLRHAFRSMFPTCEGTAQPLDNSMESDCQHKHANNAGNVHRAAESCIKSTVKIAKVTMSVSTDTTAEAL

Point of comparison: `CCCCCCC(C)(C)c1ccc([C@H]2C[C@@H](O)CC[C@@H]2CCCO)c(O)c1` [CP-56667 [(+)-AC],XV], Ki 5.92 nM. Against it:
- CCCCC/C=C\C/C=C\C/C=C\C/C=C\CCCCCC(=O)NCCO — 470-fold higher, 2790 nM
- CC(=O)Oc1cc(OC(C)CCCc2ccccc2)cc2c1C1CC(O)CCC1C(C)N2 (configuration not stated) [NSC_107822] — within 1.5-fold, 8.24 nM
- Cc1c(C(=O)c2cccc3ccccc23)c2cccc3c2n1[C@H](CN1CCOCC1)CO3 [WIN55212-2] — 11-fold higher, 63.3 nM
- CCCCC/C=C\C/C=C\C/C=C\C/C=C\CCCC(=O)NC(C)CO (configuration not stated) — 28-fold higher, 166 nM
- CCCCCCC(C)(C)c1cc(O)c2c(c1)OC(C)(C)[C@@H]1CC=C(CO)CC21 (stereo partly drawn) [(R)-3-(1,1-Dimethyl-heptyl)-9-hydroxymethyl-6,6-dimethyl-6a,7,10,10a-tetrahydro-6H-benzo[c]chromen-1-ol] — 2.6-fold lower, 2.32 nM
- Cc1c(C(=O)NN2CCCCC2)nn(-c2ccc(Cl)cc2Cl)c1-c1ccc(Cl)cc1 [SR141716] — 15-fold higher, 89.3 nM
